Measurements: US8367625B2, “Antibacterial aminoglycoside analogs” (Achaogen, Inc., priority 2008, dated 2013)
Converted amounts (≈) assume the structure as drawn.

Experiments:
[1] = test system: P. aeruginosa ATCC 27853 (APAE001); assay: MIC assay, CLSI broth microdilution, APAE001; assay type: cell-based; conditions: Pseudomonas aeruginosa; APAE001 is ATCC27853; Mueller Hinton Broth, 35 C, 20 hours
Protocol: (§1) Minimum inhibitory concentrations (MIC) were determined by reference Clinical and Laboratory Standards Institute (CLSI) broth microdilution methods per M7-A7 [2006]. Quality control ranges utilizing E. coli ATCC 25922, P. aeruginosa ATCC 27853 and S. aureus ATCC 29213, and interpretive criteria for comparator agents were as published in CLSI M100-S17 [2007]. Briefly, serial two-fold dilutions of the test compounds were prepared at 2× concentration in Mueller Hinton Broth. The compound dilutions were mixed in 96-well assay plates in a 1:1 ratio with bacterial inoculum. The inoculum was prepared by suspension of a colony from an agar plate that was prepared the previous day. Bacteria were suspended in sterile saline and added to each assay plate to obtain a final concentration of 5×10^5 CFU/mL. The plates were incubated at 35 C. for 20 hours in ambient air.

[2] = test system: E. coli ATCC 25922 (AECO001); assay: MIC assay, CLSI broth microdilution, AECO001; assay type: cell-based; conditions: Escherichia coli; AECO001 is ATCC25922; Mueller Hinton Broth, 35 C, 20 hours
Protocol: as §1

MIC [1]: 1 to 16 mg/L (≈ 1.38 to 22 µM) | MIC [2]: ≤ 1 mg/L
SMILES: NCC[C@H](O)C(=O)N[C@@H]1C[C@H](N)[C@@H](O[C@H]2O[C@H](CNCCO)C=C[C@H]2N)[C@H](O[C@@H]2O[C@H](CO)[C@@H](O[C@H]3O[C@@H](CN)[C@@H](O)[C@H](O)[C@H]3N)[C@H]2O)[C@H]1O [1/20]
